For 1 compound, LC50 results are on record in patent US20200199501A1, “SOLVENT COMPOSITIONS CONTAINING 1,2,2-TRIFLUORO-1-TRIFLUOROMETHYLCYCLOBUTANE (TFMCB)” (Honeywell International Inc., priority 2018, published 2020).

The data set can be described thus: Acute inhalation toxicity (OECD Guideline No. 403). The conditions noted are these: in vivo, inhaled, OECD Guideline No. 403 (2009), Method B.2 of Commission Regulation (EC) No. 440/2008. The text has this: LC50 is a measure of the acute toxicity of a compound. The acute inhalation toxicity of a compound can be assessed using the method described in the OECD Guideline for Testing of Chemicals No. 403 “Acute Inhalation Toxicity” (2009), Method B.2. (Inhalation) of Commission Regulation (EC) No. 440/2008.

Where only a bound is given, the exact number is not on record here.

Consider `FC(F)(F)C1(F)CCC1(F)F` (stereo not shown) [TFMCB, 1,2,2-trifluoro-1-trifluoromethylcyclobutane], for which the LC50 is > 19.1 µg/mL.

The term LC50 denotes the concentration lethal to half of the exposed cells or organisms.
